Activity calls are given as the source filed them.
Tests used:
[1] = cells
[2] = target: Neurotensin receptor type 1 (Homo sapiens, UniProt P30989); format: functional;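 note: Image-based confirmatory dose-response assay measuring agonist activity at NTR1; NTR1-expressing U2OS osteosarcoma cells imaged for beta-arrestin GFP spot formation; agonist potency where compounds increase beta-arrestin recruitment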
[3] = target: Melanocortin receptor 4 (Homo sapiens, UniProt P32245); format: functional, cell-based;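 note: Cell-based assay with luminescence read-out, confirmatory dose-response testing for agonist activity of biased ligands at MC4R; human U2OS cells with tagged receptor and beta-arrestin; potency of agonists that increase receptor coupling to beta-arrestin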
[4] = target: Intestinal-type alkaline phosphatase (Homo sapiens, UniProt P09923); assay: Dose Response confirmation of uHTS hits from a small molecule inhibitors of human intestinal alkaline phosphatase via a luminescent assay. [Related pubchem assays (depositor defined):AID2544, AID2574]; format: functional
[5] = target: G-protein coupled receptor 55 (Homo sapiens, UniProt Q9Y2T6); assay: GPR55 agonists via beta-arrestin recruitment, primary screen, imaging, U2OS cells, beta-arrestin-GFP redistribution (AID 1961); format: functional
[6] = target: T1, Neuropeptide Y receptor type 2 (Homo sapiens, UniProt P49146); assay: NPY-Y2 antagonist potency, selectivity check, dose response, counter-screen for NPY-Y1 antagonist project, cell-based (AID 1278); format: functional
T1 sequence (P49146 whole entry): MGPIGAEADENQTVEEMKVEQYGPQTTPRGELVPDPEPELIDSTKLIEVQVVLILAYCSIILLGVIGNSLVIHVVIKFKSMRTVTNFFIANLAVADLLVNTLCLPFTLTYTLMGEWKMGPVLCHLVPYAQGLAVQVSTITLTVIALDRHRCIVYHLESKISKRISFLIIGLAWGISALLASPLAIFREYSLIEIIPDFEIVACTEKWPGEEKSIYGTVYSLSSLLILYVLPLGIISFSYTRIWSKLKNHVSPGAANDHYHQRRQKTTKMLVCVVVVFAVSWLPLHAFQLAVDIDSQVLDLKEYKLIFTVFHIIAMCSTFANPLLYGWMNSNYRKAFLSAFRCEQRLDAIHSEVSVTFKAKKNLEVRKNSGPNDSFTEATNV

[7] = target: T2, Neuropeptide Y receptor type 1 (Homo sapiens, UniProt P25929); assay: NPY-Y1 receptor antagonist potency, dose response, cell-based (AID 1277); format: functional
T2 sequence (P25929 whole entry): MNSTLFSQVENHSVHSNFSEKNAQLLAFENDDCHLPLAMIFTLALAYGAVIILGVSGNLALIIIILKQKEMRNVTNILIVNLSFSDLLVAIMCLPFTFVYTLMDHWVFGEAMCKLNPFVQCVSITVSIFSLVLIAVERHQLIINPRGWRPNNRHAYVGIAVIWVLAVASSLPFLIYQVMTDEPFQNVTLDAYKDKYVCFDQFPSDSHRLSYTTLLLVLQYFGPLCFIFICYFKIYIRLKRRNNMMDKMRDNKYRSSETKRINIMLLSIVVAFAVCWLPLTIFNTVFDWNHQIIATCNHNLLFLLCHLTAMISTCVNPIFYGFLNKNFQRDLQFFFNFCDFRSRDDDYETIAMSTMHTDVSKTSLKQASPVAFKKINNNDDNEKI

[8] = target: Female germline-specific tumor suppressor gld-1 (Caenorhabditis elegans, UniProt Q17339); assay: inhibitors of GLD-1 binding to TGE RNA, dose response, biochemical, fluorescence polarization, C. elegans (AID 2802);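 note: fluorescence polarization of labeled TGE RNA bound by purified gld-1 protein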
[9] = target: T3, Zinc finger protein mex-5 (Caenorhabditis elegans, UniProt Q9XUB2); assay: MEX-5/TCR-2 RNA interaction inhibitors, dose response, biochemical, C. elegans, fluorescence polarization (AID 1960)
T3 sequence (Q9XUB2 whole entry): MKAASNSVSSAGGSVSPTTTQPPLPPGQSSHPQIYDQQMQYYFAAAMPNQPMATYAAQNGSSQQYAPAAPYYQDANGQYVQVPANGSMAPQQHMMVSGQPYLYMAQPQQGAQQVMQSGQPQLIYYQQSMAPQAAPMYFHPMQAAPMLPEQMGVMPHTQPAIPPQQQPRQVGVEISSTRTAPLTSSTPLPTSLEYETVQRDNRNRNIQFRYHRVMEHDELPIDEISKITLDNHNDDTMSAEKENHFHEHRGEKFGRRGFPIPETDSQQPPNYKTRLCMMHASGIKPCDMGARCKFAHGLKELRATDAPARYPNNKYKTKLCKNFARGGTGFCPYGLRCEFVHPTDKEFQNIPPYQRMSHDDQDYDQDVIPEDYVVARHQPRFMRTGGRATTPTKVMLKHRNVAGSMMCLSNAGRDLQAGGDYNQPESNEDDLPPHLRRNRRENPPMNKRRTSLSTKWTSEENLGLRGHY

[10] = target: T4, RNA-binding protein pos-1 (Caenorhabditis elegans, UniProt G5EF15); assay: inhibitors of POS-1/mex-3 RNA binding, dose response, biochemical, fluorescence polarization (AID 1964);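 note: purified POS-1 fused to maltose binding protein made in E. coli; potency of compounds blocking POS-1 binding to fluorescent RNA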
T4 sequence (G5EF15 whole entry): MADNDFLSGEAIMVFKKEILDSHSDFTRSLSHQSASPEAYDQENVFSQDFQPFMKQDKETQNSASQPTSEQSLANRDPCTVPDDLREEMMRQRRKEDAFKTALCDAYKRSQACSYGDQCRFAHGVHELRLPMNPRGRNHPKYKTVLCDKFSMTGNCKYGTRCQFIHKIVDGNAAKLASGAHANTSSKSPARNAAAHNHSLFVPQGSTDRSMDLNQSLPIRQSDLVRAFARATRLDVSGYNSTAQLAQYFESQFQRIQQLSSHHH

[11] = target: Protein Rev (Human immunodeficiency virus type 1 group M subtype B (isolate HXB2)(HIV-1), UniProt P04618); assay: inhibitors of Rev binding to RRE RNA, dose response, biochemical, fluorescence polarization, HIV-1 (AID 434976); parameters: species or system Human immunodeficiency virus 1
[12] = target: T5, Mannose-6-phosphate isomerase (Homo sapiens, UniProt P34949); assay: inhibitors of human PMI, primary screen, biochemical, fluorescence intensity, coupled assay (AID 1209)
T5 sequence (P34949 whole entry): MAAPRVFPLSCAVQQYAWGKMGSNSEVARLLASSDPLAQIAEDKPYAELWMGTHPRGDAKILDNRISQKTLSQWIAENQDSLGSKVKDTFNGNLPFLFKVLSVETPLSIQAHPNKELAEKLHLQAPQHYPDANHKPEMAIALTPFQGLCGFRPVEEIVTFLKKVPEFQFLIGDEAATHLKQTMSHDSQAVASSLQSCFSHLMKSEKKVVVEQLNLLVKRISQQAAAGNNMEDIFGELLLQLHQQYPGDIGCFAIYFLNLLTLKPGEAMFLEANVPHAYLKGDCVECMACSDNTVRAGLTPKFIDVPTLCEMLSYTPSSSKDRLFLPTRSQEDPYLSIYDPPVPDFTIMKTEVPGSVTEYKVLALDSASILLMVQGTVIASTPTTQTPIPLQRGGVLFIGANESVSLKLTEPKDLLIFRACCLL

[13] = target: T5, Mannose-6-phosphate isomerase; assay: human PMI inhibitors, high substrate, primary screen, biochemical, fluorescence intensity, high mannose 6-phosphate (AID 1220)
[14] = cytotoxicity toward NIH3T3 fibroblasts, dose response, counter-screen, cell-based, ATP luminescence, mouse fibroblasts (AID 2010); format: functional;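 note: cells exposed to compound for about 90 hours before reading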
[15] = inhibitors of intracellular T. cruzi replication, confirmation, NIH3T3 host cells, beta-gal luminescence (AID 2044); format: functional, cell-based;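 note: intracellular parasites grown in NIH/3T3 mouse fibroblasts as host cells; luminescent beta-galactosidase reporter signal from transgenic T. cruzi replicating inside host cells; inhibitors lower the luminescence signal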
[16] = A cytotoxicity screen of small molecule inhibitors of the PhoP region in Salmonella typhi identified in the primary screen. [Related pubchem assays: 1850, 1864, 1985 ]; format: functional
[17] = cells; format: functional
[18] = target: Eukaryotic translation initiation factor 4E (Mus musculus, UniProt P63073); assay: eIF4E–eIF4G protein interaction inhibitors, dose response, biochemical, TR-FRET (AID 855); format: functional;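 note: potency for disrupting eIF4E binding to eIF4GI seen as loss of FRET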
[19] = target: T6, Voltage-gated N-type calcium channel alpha-1B subunit/Amyloid beta A4 precursor protein-binding family A member 1 (Homo sapiens, UniProt Q00975+Q02410); format: protein assay
[20] = target: T6, Voltage-gated N-type calcium channel alpha-1B subunit/Amyloid beta A4 precursor protein-binding family A member 1; format: protein assay; remark: listed apart in the source
[21] = target: Glucose-6-phosphate 1-dehydrogenase (Homo sapiens, UniProt P11413); assay: human G6PD enzyme inhibitors, dose response, selectivity assay for P. falciparum G6PD inhibitor project, biochemical, fluorescence (AID 504792); format: functional
[22] = target: Acyl-homoserine lactone acylase PvdQ (Pseudomonas aeruginosa (strain LESB58), UniProt Q9I194); assay: P. aeruginosa PvdQ acylase inhibitors, dose response, biochemical, fluorescence, plate reader and imaging, cherry-picks (AID 493231)

G-protein coupled receptor 55, sequence (Q9Y2T6 whole entry): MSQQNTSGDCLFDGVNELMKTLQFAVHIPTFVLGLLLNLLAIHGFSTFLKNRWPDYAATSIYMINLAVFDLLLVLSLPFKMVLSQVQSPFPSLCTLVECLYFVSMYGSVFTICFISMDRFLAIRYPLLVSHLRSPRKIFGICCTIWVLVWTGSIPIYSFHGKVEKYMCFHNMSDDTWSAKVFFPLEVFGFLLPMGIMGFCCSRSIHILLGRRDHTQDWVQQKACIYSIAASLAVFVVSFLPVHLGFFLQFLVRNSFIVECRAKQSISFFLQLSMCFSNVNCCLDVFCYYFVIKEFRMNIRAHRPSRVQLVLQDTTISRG
Protein Rev, sequence (P04618 whole entry): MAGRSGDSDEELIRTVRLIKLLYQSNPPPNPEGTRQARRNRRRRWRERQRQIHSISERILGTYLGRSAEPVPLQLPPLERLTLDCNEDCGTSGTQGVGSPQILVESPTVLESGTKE
Female germline-specific tumor suppressor gld-1, sequence (Q17339 whole entry): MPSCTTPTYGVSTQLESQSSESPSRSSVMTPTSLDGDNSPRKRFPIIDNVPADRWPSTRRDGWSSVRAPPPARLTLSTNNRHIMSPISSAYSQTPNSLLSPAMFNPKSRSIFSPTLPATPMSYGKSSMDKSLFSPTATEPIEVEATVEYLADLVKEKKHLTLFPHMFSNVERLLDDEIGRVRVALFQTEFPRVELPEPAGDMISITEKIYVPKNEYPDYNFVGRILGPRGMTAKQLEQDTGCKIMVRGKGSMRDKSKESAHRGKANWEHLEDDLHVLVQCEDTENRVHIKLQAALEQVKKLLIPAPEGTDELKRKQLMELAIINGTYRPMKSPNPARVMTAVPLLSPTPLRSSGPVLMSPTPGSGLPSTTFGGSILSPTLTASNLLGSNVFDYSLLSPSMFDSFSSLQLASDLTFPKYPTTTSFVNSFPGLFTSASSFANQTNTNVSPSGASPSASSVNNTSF
T6 sequence (Q00975 whole entry): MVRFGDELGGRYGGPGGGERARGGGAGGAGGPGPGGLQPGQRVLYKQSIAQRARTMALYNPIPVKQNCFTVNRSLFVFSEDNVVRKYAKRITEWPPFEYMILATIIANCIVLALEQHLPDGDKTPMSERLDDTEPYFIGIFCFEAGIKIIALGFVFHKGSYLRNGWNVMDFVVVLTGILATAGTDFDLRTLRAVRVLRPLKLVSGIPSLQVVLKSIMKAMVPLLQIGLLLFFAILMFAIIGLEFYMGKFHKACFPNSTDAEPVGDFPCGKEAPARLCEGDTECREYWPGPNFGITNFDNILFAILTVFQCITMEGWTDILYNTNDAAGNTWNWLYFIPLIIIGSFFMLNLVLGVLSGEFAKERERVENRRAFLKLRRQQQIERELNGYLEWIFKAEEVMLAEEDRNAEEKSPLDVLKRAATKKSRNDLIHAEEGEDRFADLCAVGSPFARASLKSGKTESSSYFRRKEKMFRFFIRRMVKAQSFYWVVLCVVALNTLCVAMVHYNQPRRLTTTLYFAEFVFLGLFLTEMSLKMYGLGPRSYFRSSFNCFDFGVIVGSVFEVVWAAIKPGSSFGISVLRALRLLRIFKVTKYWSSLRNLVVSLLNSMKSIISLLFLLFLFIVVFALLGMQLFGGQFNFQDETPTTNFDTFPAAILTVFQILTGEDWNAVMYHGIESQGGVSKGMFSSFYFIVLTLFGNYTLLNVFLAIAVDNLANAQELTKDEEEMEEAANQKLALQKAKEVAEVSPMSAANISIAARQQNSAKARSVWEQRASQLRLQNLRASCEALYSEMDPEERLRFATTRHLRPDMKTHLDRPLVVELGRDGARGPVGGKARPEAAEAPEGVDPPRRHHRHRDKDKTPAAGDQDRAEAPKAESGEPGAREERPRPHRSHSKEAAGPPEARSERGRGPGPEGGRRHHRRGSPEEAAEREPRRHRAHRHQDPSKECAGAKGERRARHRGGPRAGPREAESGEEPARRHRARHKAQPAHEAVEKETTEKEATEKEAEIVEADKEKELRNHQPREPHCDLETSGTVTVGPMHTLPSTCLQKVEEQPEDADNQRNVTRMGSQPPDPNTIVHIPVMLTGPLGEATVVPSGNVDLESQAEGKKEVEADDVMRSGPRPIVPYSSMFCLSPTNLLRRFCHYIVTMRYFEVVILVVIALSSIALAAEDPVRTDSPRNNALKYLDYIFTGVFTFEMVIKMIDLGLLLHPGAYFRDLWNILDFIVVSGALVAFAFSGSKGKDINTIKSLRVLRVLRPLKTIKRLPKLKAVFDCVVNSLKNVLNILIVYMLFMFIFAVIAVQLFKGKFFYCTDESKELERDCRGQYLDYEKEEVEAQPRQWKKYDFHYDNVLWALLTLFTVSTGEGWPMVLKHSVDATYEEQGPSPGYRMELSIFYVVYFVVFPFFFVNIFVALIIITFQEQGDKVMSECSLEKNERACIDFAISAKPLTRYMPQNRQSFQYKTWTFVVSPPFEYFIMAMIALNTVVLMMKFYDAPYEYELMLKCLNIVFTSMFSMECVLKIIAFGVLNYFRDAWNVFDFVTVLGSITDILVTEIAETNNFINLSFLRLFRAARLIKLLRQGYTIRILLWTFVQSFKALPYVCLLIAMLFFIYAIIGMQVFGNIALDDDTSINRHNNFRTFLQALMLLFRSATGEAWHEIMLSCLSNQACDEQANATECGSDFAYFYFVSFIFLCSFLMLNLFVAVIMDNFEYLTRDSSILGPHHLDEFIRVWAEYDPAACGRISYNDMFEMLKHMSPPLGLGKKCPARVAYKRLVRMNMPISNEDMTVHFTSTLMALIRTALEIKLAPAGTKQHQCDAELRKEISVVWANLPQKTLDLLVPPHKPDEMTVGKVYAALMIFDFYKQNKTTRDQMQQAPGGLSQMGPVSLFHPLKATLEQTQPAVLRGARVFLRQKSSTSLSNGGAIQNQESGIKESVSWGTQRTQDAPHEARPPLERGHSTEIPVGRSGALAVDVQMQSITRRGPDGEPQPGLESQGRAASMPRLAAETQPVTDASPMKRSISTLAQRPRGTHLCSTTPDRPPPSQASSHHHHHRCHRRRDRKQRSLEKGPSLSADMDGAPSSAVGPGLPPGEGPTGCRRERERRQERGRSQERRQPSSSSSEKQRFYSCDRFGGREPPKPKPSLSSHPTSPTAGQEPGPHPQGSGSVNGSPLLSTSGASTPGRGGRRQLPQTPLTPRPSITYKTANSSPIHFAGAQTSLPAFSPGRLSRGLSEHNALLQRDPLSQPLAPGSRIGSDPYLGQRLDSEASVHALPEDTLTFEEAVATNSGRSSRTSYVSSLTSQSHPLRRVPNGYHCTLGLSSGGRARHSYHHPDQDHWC
T6 sequence (Q02410 whole entry): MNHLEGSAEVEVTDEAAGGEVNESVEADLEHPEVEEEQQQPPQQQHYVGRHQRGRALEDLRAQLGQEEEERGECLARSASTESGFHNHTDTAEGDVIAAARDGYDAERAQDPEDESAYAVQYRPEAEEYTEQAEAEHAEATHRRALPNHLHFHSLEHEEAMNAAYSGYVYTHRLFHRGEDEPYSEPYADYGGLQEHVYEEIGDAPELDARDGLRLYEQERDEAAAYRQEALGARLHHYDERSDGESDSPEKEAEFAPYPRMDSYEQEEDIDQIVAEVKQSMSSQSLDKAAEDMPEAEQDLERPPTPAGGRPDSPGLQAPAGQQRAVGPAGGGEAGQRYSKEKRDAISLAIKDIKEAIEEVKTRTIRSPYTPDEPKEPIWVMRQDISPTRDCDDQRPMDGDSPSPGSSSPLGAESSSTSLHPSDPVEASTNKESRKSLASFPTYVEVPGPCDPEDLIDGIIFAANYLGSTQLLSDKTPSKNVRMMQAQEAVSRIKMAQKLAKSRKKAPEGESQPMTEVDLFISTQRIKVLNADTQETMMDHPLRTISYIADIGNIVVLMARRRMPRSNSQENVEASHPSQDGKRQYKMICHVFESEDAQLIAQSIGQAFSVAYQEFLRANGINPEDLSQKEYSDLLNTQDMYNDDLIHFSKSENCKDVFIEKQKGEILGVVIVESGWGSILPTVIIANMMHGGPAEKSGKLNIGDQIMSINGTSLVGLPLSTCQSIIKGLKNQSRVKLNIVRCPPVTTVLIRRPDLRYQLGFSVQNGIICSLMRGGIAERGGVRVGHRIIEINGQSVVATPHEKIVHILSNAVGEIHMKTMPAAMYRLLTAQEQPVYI
Melanocortin receptor 4, sequence (P32245 whole entry): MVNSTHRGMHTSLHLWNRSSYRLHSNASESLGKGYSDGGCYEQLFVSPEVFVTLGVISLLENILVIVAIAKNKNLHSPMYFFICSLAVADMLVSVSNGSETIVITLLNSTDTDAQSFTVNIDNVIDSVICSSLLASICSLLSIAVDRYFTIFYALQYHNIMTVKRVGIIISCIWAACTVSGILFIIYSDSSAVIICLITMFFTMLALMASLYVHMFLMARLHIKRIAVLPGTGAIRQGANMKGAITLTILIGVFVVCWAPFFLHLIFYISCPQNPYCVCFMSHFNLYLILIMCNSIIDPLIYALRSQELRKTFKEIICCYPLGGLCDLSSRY
Glucose-6-phosphate 1-dehydrogenase, sequence (P11413 whole entry): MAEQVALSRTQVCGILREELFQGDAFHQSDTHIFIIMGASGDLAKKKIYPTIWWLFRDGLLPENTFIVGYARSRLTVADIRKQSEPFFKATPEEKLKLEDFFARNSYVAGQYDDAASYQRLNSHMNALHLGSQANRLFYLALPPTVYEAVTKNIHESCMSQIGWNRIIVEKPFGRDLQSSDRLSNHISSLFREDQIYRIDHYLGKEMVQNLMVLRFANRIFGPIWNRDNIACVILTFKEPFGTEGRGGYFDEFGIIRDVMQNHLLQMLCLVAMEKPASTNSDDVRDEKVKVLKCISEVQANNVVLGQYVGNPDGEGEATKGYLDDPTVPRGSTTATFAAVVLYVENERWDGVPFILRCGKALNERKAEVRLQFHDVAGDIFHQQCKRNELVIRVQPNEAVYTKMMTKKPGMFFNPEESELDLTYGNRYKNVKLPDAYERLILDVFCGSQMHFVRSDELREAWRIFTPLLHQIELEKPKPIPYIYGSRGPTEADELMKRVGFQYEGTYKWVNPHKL

C#CCOCCOCCOCCNc1nc(N2CCN(C(=O)CCCCCCCCCCNC(=O)[C@@H]([C@H](C)O)n3cc(C)nn3)CC2)nc(N2CCN(C(=O)CCCCCCCCCCNC(=O)[C@@H]([C@H](C)O)n3cc(C)nn3)CC2)n1
IC50 [1]: 15.1 µM (active)

CCC(C)NC(=O)c1c(N)n(/N=C/c2cccnc2)c2nc3ccccc3nc12 (stereo unspecified)
EC50 [2]: > 40 µM (inactive)
EC50 [3]: > 89.2 µM (inactive)

CCCCOc1cccc(C2C(C(=O)c3ccc4c(c3)OCCO4)=C(O)C(=O)N2CCN2CCOCC2)c1 (stereo unspecified)
IC50 [4]: > 100 µM (inactive)

CC(=O)c1c(C(C)=O)c(C)n(Cc2ccc3c(c2)OCO3)c1C
EC50 [5]: > 32 µM (inactive)

COc1ccc(N(C(=O)C2CCCCC2)S(=O)(=O)c2cccc3cccnc23)cc1
IC50 [6]: > 35 µM (not active)
IC50 [7]: > 35 µM (not active)

Cc1c(O)ccc(-c2n[nH]c(C(=O)O)c2-c2nc3ccccc3s2)c1O
IC50 [8]: 5.41 µM (active)
EC50 [9]: 14 µM (inconclusive)
EC50 [10]: 15.3 µM (active)
IC50 [11]: > 75.4 µM (not active)

CCCCn1c(=O)[nH]c2nc3cc(NC(C)=O)ccc3nc2c1=O
IC50 [8]: 0.84 µM (active)
IC50 [11]: 6.5 µM (active)

Cc1cc(C)n(-c2nnc(N3CCN(c4ccc(F)cc4)CC3)nn2)n1
IC50 [12]: > 50 µM (not active)
IC50 [13]: > 50 µM (not active)

O=C(Nc1ccc(Cl)c(Cl)c1)N(Cc1cccnc1)Cc1ccco1
EC50 [5]: > 32 µM (inactive)
EC50 [14]: > 60 µM (not active)
EC50 [15]: 0.552 µM (active)

O=C(N/N=C/c1cccnc1)c1cccc(Cl)c1
EC50 [16]: > 50 µM (active)

COc1cc(/N=c2\ssnc2Cl)cc(OC)c1
IC50 [17]: 39.2 µM (active)
IC50 [12]: 19.6 µM (active)
IC50 [18]: 22.6 µM (active)
IC50 [19]: 6.42 µM (active)
IC50 [20]: 0.738 µM (active)
IC50 [21]: > 80 µM (inactive)

O=C(c1cccc([N+](=O)[O-])c1)N1CC2C3C=CC(C3)C2C1 (stereo unspecified)
AC50 [22]: 7.93 µM (active)
